According to publication PMC8502973 (Frontiers in Physiology, 2021):
“Also recorded” adds a separate entry of the source.

Columns and labels:
[1] = Excipient (HP-CD) effects on food intake and body weight; format: in vivo; settings: 2% HP-CD/saline, 1 mL/kg, 7 days, lean male rats n = 5
Description: As the excipient used to place ASK1476 in solution, HP-CD, was used in excess, a preliminary experiment was run to examine whether it produces any anorectic effects independently. Testing consisted of a 7-day normal saline treated phase followed by a 7-day 2% HP-CD/saline solution (dose 1 mL/kg) treated phase in lean male rats (n = 5; at start of HP-CD treatment: mean 410 g, SD 26 g). […] Food intake was continuously recorded using AccuScan DietMax (currently OmniTech Electronics, Inc., Diet System) cages and data were binned into 15-min intervals for analysis. The start of the 24-h food intake period aligned to the lights turning off in the animal room. Body weight was recorded, and treatment injections were administered just prior to the start of the dark cycle.

V2R = V2R agonist; no reference given; cited from earlier work
Excerpt: Whereas the overall profile of ASK1476 met the primary aim of our studies including the enhanced stability of the OXTR activator in vivo, the molecule did display a significant activation of the V2R. As mentioned above, the receptor plays the key role in both urine and water homeostasis.

[2] = test system: OXTR compared with the V1aR; set-up: method as in Akerlund et al., 1999; settings: ref Akerlund et al., 1999; cited from earlier work
Excerpt: (§1) Finally, the potential for toxic side effects upon chronic administration at high concentration and/or f ...

[3] = Dose escalation: food intake; format: in vivo, male DIO Sprague Dawley rats
Description: (§2) Sprague Dawley rats (male, ∼4 weeks of age, 51–75 g body weight) were switched from standard chow to a high fat diet (Research Diets, Diet # D12492, 60, 20, 20%kcal from fat, protein, and carbohydrate, respectively, 5.21 kcal/g; stored at −20°C). The rats were maintained on this diet for approximately 15 weeks prior to the start of experiments to develop a diet-induced overweight (DIO) model. Animals were individually housed on a 12 h/12 h light/dark cycle (lights on at 04:00 h) in a temperature (23°C) and humidity (mean 50%, SD 10%) controlled room. All body weight measurements were made just prior to the start of the dark cycle.
(§3) Sequential rounds of a 3-day baseline phase (vehicle treated), a 3-day treatment phase, and a washout phase (2–5 days as necessary) were tested. […] High fat diet was accessible to the rats from all but the last 6 h of the light cycle and water was provided ad libitum. This daily period of food restriction was used to prevent incidental feeding in the event animals were disturbed from their sleep by noise from surrounding rooms. To assess a potential pica response (nausea/visceral malaise) in animals, powdered kaolin (Sigma-Aldrich, K1512) was made available on drug treatment days with a restriction period similar to the high fat diet. Prior to the first experiment, rats were provided access to kaolin for 2 days so that they could familiarize themselves with it prior to start of testing. Food and kaolin intake were continuously recorded using AccuScan DietMax (currently OmniTech Electronics, Inc., Diet System) cages. The high fat diet was compressed in the food tray to form a solid block of food. This allows for more accurate meal size measurements by preventing the animals from removing entire pellets at time. All food and kaolin intake data were binned into 15-min intervals for analysis and the start of the 24-h food intake period aligned to the lights turning off in the animal room. Body weight was recorded, and treatment injections were administered just prior to the start of the dark cycle.

[4] = set-up: method as in Freeman et al., 2016; settings: peripheral administration, macaques; ref Freeman et al., 2016; cited from earlier work
[5] = cited from earlier work
Excerpt: as §1

[6] = Long-term (28-day) drug intervention: body weight; format: in vivo, male DIO Sprague Dawley rats
Description: as §2
(§4) Male DIO Sprague Dawley rats (n = 24) were generated as outlined above and were 644.5 g (50 g) at the start of drug treatment. The animals were divided into three treatment groups (n = 8 each) balanced for body weight, body weight gain during baseline, food intake, and Lee Index [body weight^(1/3)/snout to anus length (mm)] ([Lee, 1929]; [Simson and Gold, 1982]) as an indicator of adiposity (Figure 2). In a subset of the animals (n = 5 per group, balanced for prior mentioned criteria), Mini-Mitter transponders (PDT-4000 E-Mitter, Respironics Inc.) were implanted posterior to the left scapula at least 9 days prior to start of baseline measures to ensure sufficient recovery time. Body temperature and gross motor activity were continuously recorded via these transponders. […] High fat diet and water were provided ad libitum and intake was recorded with daily hopper and water bottle weighs at time of body weight assessment just prior to drug administration. Blood samples were taken at start of intervention by tail vein bleeding and via cardiac puncture under an isoflurane induced surgical plane of anesthesia at euthanasia. Animals were euthanized on treatment day 29, 4 h after receiving a dose of their assigned treatment, via decapitation under isoflurane anesthesia immediately following blood draw. Body composition was assessed on carcasses.
From treatment day 8 on the doses were maintained to assess long-term efficacy at a therapeutically meaningful dose.

hV1aR = test system: hV1aR; set-up: method as in 3 sources, one per row (each row's own in cited_ref): ref Wiśniewski et al. (2014) ||| ref Modi et al. (2016) ||| ref Modi et al., 2016; settings: OXT; ref Wiśniewski et al. (2014); cited from earlier work
[7] = Dose escalation: kaolin intake (pica, nausea/visceral malaise); format: in vivo, male DIO Sprague Dawley rats
Description: as §2, §3

[8] = 2015, cited from earlier work
Excerpt: OXT is a downstream target of the adipose tissue hormone leptin.

Toxicity / mortality = format: in vivo; settings: rat, in vivo, sc
[9] = Long-term: body composition of carcasses by quantitative magnetic resonance; format: in vivo, male DIO Sprague Dawley rats
Excerpt: as §4
Body composition (total and relative fat mass, lean mass, and water content) was assessed on carcasses from the long-term drug intervention study using Quantitative Magnetic Resonance (EchoMRI 4-in-1, Echo Medical Systems, Houston, TX) at the Rodent Metabolic and Behavioral Phenotyping Core at the VA Puget Sound Health Care System (VAPSHCS).

[10] = Dose escalation: water intake; format: in vivo, male DIO Sprague Dawley rats; settings: sc once daily; ASK1476 F(1.80, 12.61) = 3.15, p = 0.082; OXT F(1.68, 11.72) = 4.05, p = 0.086
Description: as §2
(§5) Sequential rounds of a 3-day baseline phase (vehicle treated), a 3-day treatment phase, and a washout phase (2–5 days as necessary) were tested. […] High fat diet was accessible to the rats from all but the last 6 h of the light cycle and water was provided ad libitum. This daily period of food restriction was used to prevent incidental feeding in the event animals were disturbed from their sleep by noise from surrounding rooms. […] Food and kaolin intake were continuously recorded using AccuScan DietMax (currently OmniTech Electronics, Inc., Diet System) cages. […] Body weight was recorded, and treatment injections were administered just prior to the start of the dark cycle.

hOXTR = test system: hOXTR; set-up: method as in 2 sources, one per row (each row's own in cited_ref): ref Wiśniewski et al. (2014) ||| ref Modi et al. (2016); settings: OXT; ref Wiśniewski et al. (2014); cited from earlier work
[11] = Dose escalation: body weight change; format: in vivo, male DIO Sprague Dawley rats; settings: sc once daily
Description: as §2, §5

[12] = Long-term: gross motor activity and body temperature (Mini-Mitter transponders); format: in vivo, male DIO Sprague Dawley rats; settings: 28-day study, n = 5 per group, first 12 days analysed
Excerpt: as §4
For comparisons of mean longitudinal changes in body temperature and activity, only the first 12 days of treatment, divided into three 4-day phases, were included in the analysis. These 4-day phases allowed for analyses to consider the ASK1476 dose titration.

Hydroxypropyl-β-cyclodextrin [HP-CD]
7-day food intake, difference vs saline ([1]; 95% CU −0.19 to 0.71, p = 0.187): 0.26 g | body weight gain, difference vs saline ([1]; 95% CU −0.99 to 0.95, p = 0.950): -0.02 g

desmopressin
side effects in the clinical setting (V2R): hyponatremia and renal water retention

oxytocin [OXT]
affinity for the OXTR compared with the V1aR [2]: fivefold greater affinity | reduction in 3-day averaged food intake ([3]; OXT 20 nmol/kg sc once daily vs 3-day saline baseline, n = 8, 95% CI −19.40 to −2.94, p = 0.0106): -11.17 kcal/day | lowest dose with significant reduction in 3-day averaged food intake ([3]; sc once daily, 3 days, n = 8): 20 nmol/kg | interaction of treatment and dose on 3-day averaged food intake ([3]; sc once daily, ASK1476 F(2.84, 19.86) = 6.52, p = 0.003, OXT F(1.89, 13.25) = 9.49, p = 0.003): significant interaction | entry into the CSF from the periphery [4]: only small amounts | half-life in vivo [5]: ~5 min | compensatory weight gain / weight regain following nadir ([6]; 28-d treatment): significantly lower rates of weight regain following body weight nadir | average day of body weight nadir ([6]; 28-day treatment, sc once daily): 14 days | daily percent change of body weight from nadir, mean difference vs. vehicle ([6]; OXT: 95% CI −0.23 to 0.01, p = 0.069): −0.11% | Body weight, post-treatment ([6]; after 28-day Tx, ASK1476 to 120 or OXT 600 nmol/kg/d sc, n = 8, Mean ± SD, oxytocin * p < 0.05 vs vehicle, ANOVA p 0.041): 615.143.2* g | reduction in body weight, OXT 600 nmol/kg/d compared with ASK1476 30 and 60 nmol/kg ([6]; long-term study, titration phases): significantly greater reductions in body weight | average daily individual percent change of body weight from nadir to end of treatment ([6]; mean, SD 0.04% ASK1476, 0.16% OXT, vehicle 0.34% (SD 0.05%)): 0.23% | weight stability during final 20 days ([6]; treatment days 9-28): remained weight stable | EC50 (hV1aR): 10 nM | visceral malaise signal (notably high kaolin intake in a few animals) ([7]; ASK1476 dosing spectrum): not observed in any | kaolin intake at low doses ([7]; low doses, sc once daily): below 4 g/d | kaolin intake, effect of treatment ([7]; sc once daily, ASK1476 6-300 nmol/kg F(1.80, 12.59) = 2.26, p = 0.148, OXT 20-1200 nmol/kg F(1.51, 10.52) = 1.73, p = 0.223): no significant effect of treatment | food intake, energy expenditure and weight gain ([8]; peripheral administration, diet-induced and genetically obese rodent models, ref Maejima et al., 2011, Morton et al., 2012, Blevins et al.): reduces food intake, enhances energy expenditure, and prevents or reduces weight gain | energy expenditure / weight loss in diet-induced obese non-human primates ([8]; ref Blevins et al.): elicits weight loss, in part, by increasing energy expenditure | adverse effects or tolerability issues (Toxicity / mortality): No adverse effects or tolerability issues were observed | fat mass, difference vs vehicle ([9]; OXT 600 nmol/kg/d 28 days, 95% CI −97.2 to 7.2, p = 0.103): -45.0 g | lean mass, difference vs vehicle ([9]; OXT 600 nmol/kg/d 28 days, 95% CU −109.8 to −5.4, p = 0.028): -57.6 g | Lean mass, post-treatment ([9]; after 28-day Tx, n = 8, Mean ± SD, oxytocin * p < 0.05 vs vehicle, ANOVA p 0.015): 416.531.9* g | water intake [10]: not significantly affected | EC50 (hOXTR): 2.3 nM | body weight gain across dosing spectrum ([11]; ASK1476 6-300 nmol/kg, OXT 20-1200 nmol/kg, 3 days): Significant reductions in body weight gain; also recorded: effective in reducing body weight gain across the dose spectrum | interaction of treatment and dose on body weight change ([11]; ASK1476 F(2.08, 15.54) = 9.50, p = 0.002, OXT F(2.40, 16.79) = 16.98, p < 0.0001): significant interaction | locomotor activity or body temperature [12]: did not find any evidence | locomotor activity or body temperature ([12]; listed as oxytocin): no effects were detected on locomotor activity or body temperature
